Data reported in ChEMBL document CHEMBL1129876, “The synthesis and activity of spiroindane growth hormone secretagogues” (Bioorg Med Chem Lett, 1997).

What was measured:
Rattus norvegicus = species: Rattus norvegicus; experiment: The compound was evaluated for its ability to release growth hormone from rat pituitary cells.; format: functional, cell-based; settings: Pituitary gland cell
Canis familiaris [1] = experiment: Tested for response in dogs after iv administration of 0.05 mg/kg; cured/treated is 1/1; format: functional, organism-based; parameters: dose 0.05 mg/kg; settings: Canis lupus familiaris
Canis familiaris [2] = experiment: Tested for response in dogs after peroral administration of 0.5 mg/kg; cured/treated is 1/2; format: functional, organism-based; parameters: dose 0.5 mg/kg; settings: Canis lupus familiaris
Canis familiaris [3] = experiment: Tested for response in dogs after peroral administration of 1 mg/kg; cured/treated is 2/2; format: functional, organism-based; parameters: dose 1 mg/kg; settings: Canis lupus familiaris
Canis familiaris [4] = experiment: Tested for response in dogs after iv administration of 0.025 mg/kg; cured/treated is 1/1; format: functional, organism-based; parameters: dose 0.025 mg/kg; settings: Canis lupus familiaris
Canis familiaris [5] = experiment: Tested for response in dogs after peroral administration of 0.25 mg/kg; cured/treated is 2/2; format: functional, organism-based; parameters: dose 0.25 mg/kg; settings: Canis lupus familiaris
Canis familiaris [6] = experiment: Tested for response in dogs after peroral administration of 0.125 mg/kg; cured/treated is 1/2; format: functional, organism-based; parameters: dose 0.125 mg/kg; settings: Canis lupus familiaris
Canis familiaris [7] = experiment: Tested for response in dogs after iv administration of 0.1 mg/kg; cured/treated is 0/1; format: functional, organism-based; parameters: dose 0.1 mg/kg; settings: Canis lupus familiaris
Canis familiaris [8] = experiment: Tested for response in dogs after oral administration of 1 mg/kg; cured/treated is 2/2; format: functional, organism-based; parameters: dose 1 mg/kg; settings: Canis lupus familiaris
Canis familiaris [9] = experiment: Tested for response in dogs after iv administration of 0.05 mg/kg; cured/treated is 1/2; format: functional, organism-based; parameters: dose 0.05 mg/kg; settings: Canis lupus familiaris
Canis familiaris [10] = experiment: Tested for response in dogs after oral administration of 0.5 mg/kg; cured/treated is 1/2; format: functional, organism-based; parameters: dose 0.5 mg/kg; settings: Canis lupus familiaris
Canis familiaris [11] = experiment: Tested for response in dogs after oral administration of 2 mg/kg; cured/treated is 0/1; format: functional, organism-based; parameters: dose 2 mg/kg; settings: Canis lupus familiaris
Canis familiaris [12] = experiment: Tested for response in dogs after iv administration of 0.05 mg/kg; cured/treated is 0/1; format: functional, organism-based; parameters: dose 0.05 mg/kg; settings: Canis lupus familiaris
Canis familiaris [13] = experiment: Tested for response in dogs after oral administration of 1 mg/kg; cured/treated is 1/1; format: functional, organism-based; parameters: dose 1 mg/kg; settings: Canis lupus familiaris
Canis familiaris [14] = experiment: Tested for response in dogs after iv administration of 0.1 mg/kg; cured/treated is 1/1; format: functional, organism-based; parameters: dose 0.1 mg/kg; settings: Canis lupus familiaris

## CC(C)(N)C(=O)N[C@H](CCCc1ccccc1)C(=O)N1CCC2(CC1)CC(O)c1ccccc12 (stereo partly specified)
Rattus norvegicus
  EC50: 0.72 nM

## CC(C)(N)C(=O)N[C@H](Cc1c[nH]c2ccccc12)C(=O)N1CCC2(CC1)CC(O)c1ccccc12 (stereo partly specified)
Canis familiaris [1]
  Response: cured/treated is 1/1
Canis familiaris [2]
  Response: cured/treated is 1/1
Rattus norvegicus
  EC50: 0.6 nM
Canis familiaris [3]
  Response: cured/treated is 1/1

## CC(C)(N)C(=O)N[C@H](Cc1c[nH]c2ccccc12)C(=O)N1CCC2(CC1)c1ccccc1C(O)C2O (stereo partly specified)
Rattus norvegicus
  EC50: 30 nM

## CC(C)(N)C(=O)N[C@H](CCCc1ccccc1)C(=O)N1CCC2(CC1)CC(=O)c1ccccc12
Canis familiaris [4]
  Response: cured/treated is 1/1
Canis familiaris [5]
  Response: cured/treated is 1/1
Rattus norvegicus
  EC50: 0.8 nM
Canis familiaris [6]
  Response: cured/treated is 1/1

## CC(C)(N)C(=O)N[C@H](COCc1ccccc1)C(=O)N1CCC2(CC1)CC(=O)c1ccccc12
Rattus norvegicus
  EC50: 4.8 nM

## CC(C)(N)C(=O)N[C@H](COCc1ccccc1)C(=O)N1CCC2(CCc3ccccc32)CC1
Rattus norvegicus
  EC50: 17 nM

## CC(C)(N)C(=O)N[C@H](Cc1c[nH]c2ccccc12)C(=O)N1CCC2(CC1)c1ccccc1CC2O (stereo partly specified)
Rattus norvegicus
  EC50: 65 nM

## CC(C)(N)C(=O)N[C@H](COCc1ccccc1)C(=O)N1CCC2(CC1)CC(O)c1ccccc12 (stereo partly specified)
Rattus norvegicus
  EC50: 4 nM

## CC(C)(N)C(=O)N[C@H](CCCc1ccccc1)C(=O)N1CCC2(CCc3ccccc32)CC1
Canis familiaris [2]
  Response: cured/treated is 0/1
Canis familiaris [7]
  Response: cured/treated is 0/1
Rattus norvegicus
  EC50: 10 nM
Canis familiaris [3]
  Response: cured/treated is 0/1

## CC(C)(N)C(=O)N[C@H](Cc1c[nH]c2ccccc12)C(=O)N1CCC2(CC1)CC(=O)c1ccccc12
Rattus norvegicus
  EC50: 1.2 nM
Canis familiaris [8]
  Response: cured/treated is 1/2
Canis familiaris [9]
  Response: cured/treated is 1/2
Canis familiaris [10]
  Response: cured/treated is 1/2

## CC(C)(N)C(=O)N[C@H](Cc1c[nH]c2ccccc12)C(=O)N1CCC2(CCc3ccccc32)CC1
Canis familiaris [11]
  Response: cured/treated is 0/1
Canis familiaris [12]
  Response: cured/treated is 0/1
Canis familiaris [13]
  Response: cured/treated is 0/1
Canis familiaris [14]
  Response: cured/treated is 0/1
